From US20100137449A1, “SUBSTITUTED 1,3-CYCLOPENTADIONE MULTI-TARGET PROTEIN KINASE MODULATORS OF CANCER, ANGIOGENESIS AND THE INFLAMMATORY PATHWAYS ASSOCIATED THEREWITH” (METAPROTEOMICS, LLC, priority 2007, published 2010)

Experiments:
Experiment in all cases: KinaseProfiler Assay
Arg(h) = Arg(h) (Homo sapiens, UniProt P42684)
EGFR(T790M, L858R)(h) = EGFR(T790M, L858R)(h) (Homo sapiens, UniProt P00533, L858R/T790M)
IKKα(h) = target: T1, IKKα(h) (Homo sapiens, UniProt O15111)
T1 sequence (O15111 1-745): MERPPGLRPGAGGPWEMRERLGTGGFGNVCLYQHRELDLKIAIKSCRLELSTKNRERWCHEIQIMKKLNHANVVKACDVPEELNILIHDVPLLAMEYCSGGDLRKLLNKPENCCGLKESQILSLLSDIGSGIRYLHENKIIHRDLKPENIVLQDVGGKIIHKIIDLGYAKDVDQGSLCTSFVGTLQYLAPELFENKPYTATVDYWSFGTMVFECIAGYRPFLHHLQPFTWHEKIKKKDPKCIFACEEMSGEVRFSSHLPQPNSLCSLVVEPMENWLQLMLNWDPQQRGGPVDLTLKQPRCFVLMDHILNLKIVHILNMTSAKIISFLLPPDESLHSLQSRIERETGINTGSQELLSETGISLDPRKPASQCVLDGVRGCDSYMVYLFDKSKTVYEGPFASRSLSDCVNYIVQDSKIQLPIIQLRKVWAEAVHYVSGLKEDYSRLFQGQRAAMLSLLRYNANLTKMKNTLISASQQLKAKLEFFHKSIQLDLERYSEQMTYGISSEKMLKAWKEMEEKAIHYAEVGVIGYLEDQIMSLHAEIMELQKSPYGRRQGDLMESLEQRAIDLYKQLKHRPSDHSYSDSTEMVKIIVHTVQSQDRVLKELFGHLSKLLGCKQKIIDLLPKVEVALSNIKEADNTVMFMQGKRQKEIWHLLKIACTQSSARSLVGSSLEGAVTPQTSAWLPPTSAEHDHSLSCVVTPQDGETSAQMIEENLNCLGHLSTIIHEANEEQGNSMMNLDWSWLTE

Fes(h) = Fes(h) (Homo sapiens, UniProt P07332)
Sequence of Fes(h) (P07332 whole entry): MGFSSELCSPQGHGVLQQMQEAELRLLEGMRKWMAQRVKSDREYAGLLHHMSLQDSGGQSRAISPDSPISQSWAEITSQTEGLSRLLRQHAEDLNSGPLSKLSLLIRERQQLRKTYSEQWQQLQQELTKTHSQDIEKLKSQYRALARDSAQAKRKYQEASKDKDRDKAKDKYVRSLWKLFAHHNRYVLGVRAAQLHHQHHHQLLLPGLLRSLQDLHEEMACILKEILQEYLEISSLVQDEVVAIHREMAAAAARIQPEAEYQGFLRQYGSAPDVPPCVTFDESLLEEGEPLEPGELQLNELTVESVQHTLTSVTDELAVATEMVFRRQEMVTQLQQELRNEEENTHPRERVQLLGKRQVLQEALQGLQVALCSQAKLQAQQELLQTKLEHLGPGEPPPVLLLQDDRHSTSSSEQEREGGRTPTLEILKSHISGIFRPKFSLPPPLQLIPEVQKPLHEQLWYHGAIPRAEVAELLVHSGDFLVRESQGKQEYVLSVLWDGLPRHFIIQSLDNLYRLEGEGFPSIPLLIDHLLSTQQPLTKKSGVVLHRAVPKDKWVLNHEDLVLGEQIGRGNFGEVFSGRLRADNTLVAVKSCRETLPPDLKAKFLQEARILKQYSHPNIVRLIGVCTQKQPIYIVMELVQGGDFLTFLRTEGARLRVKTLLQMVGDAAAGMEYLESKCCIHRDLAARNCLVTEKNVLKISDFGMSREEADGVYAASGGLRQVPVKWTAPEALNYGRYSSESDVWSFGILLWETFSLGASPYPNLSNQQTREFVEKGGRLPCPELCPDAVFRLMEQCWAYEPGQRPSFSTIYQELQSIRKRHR

PKCθ(h) = PKCθ(h) (Homo sapiens, UniProt Q04759)
Sequence of PKCθ(h) (Q04759 whole entry): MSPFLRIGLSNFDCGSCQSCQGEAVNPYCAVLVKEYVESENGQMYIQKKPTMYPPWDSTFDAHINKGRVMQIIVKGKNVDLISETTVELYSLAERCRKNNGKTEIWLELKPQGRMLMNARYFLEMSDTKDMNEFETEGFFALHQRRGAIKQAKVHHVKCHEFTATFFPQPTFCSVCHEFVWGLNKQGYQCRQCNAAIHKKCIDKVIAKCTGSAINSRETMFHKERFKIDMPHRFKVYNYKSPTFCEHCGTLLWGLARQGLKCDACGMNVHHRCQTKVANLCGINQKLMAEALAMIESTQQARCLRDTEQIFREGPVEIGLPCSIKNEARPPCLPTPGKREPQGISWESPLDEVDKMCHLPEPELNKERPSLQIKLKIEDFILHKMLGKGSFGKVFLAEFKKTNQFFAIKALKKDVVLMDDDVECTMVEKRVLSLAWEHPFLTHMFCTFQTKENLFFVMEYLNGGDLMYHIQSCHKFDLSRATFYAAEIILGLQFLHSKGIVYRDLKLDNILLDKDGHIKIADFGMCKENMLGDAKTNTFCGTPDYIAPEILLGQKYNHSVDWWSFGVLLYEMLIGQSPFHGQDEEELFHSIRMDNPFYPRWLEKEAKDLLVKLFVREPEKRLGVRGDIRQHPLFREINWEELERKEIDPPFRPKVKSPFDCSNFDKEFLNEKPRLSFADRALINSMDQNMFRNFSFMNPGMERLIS

CaMKIIγ(h) = CaMKIIγ(h) (Homo sapiens, UniProt Q13555)
PDK1(h) = target: T2, PDK1(h) (Homo sapiens, UniProt O15530)
T2 sequence (O15530 1-556): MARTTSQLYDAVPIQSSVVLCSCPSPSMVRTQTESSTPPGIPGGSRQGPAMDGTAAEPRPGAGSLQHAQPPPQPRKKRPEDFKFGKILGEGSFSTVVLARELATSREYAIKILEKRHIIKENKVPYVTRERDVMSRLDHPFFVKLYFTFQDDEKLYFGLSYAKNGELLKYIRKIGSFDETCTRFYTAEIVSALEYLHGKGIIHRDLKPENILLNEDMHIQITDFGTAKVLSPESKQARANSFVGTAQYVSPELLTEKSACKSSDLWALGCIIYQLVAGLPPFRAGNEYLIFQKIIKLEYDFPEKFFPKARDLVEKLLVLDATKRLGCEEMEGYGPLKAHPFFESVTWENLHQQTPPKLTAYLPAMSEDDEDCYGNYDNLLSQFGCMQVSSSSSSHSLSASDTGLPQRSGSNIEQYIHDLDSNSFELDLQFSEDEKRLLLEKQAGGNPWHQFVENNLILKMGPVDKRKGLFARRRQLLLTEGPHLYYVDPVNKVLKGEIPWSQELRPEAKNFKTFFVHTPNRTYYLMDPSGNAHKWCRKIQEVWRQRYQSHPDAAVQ

PAR-1Bα(h) = PAR-1Bα(h) (Homo sapiens, UniProt Q7KZI7)
Tie2(R849W)(h) = Tie2(R849W)(h) (Homo sapiens, UniProt Q02763, R849W)
Sequence of Tie2(R849W)(h) (Q02763 23-1124 R849W): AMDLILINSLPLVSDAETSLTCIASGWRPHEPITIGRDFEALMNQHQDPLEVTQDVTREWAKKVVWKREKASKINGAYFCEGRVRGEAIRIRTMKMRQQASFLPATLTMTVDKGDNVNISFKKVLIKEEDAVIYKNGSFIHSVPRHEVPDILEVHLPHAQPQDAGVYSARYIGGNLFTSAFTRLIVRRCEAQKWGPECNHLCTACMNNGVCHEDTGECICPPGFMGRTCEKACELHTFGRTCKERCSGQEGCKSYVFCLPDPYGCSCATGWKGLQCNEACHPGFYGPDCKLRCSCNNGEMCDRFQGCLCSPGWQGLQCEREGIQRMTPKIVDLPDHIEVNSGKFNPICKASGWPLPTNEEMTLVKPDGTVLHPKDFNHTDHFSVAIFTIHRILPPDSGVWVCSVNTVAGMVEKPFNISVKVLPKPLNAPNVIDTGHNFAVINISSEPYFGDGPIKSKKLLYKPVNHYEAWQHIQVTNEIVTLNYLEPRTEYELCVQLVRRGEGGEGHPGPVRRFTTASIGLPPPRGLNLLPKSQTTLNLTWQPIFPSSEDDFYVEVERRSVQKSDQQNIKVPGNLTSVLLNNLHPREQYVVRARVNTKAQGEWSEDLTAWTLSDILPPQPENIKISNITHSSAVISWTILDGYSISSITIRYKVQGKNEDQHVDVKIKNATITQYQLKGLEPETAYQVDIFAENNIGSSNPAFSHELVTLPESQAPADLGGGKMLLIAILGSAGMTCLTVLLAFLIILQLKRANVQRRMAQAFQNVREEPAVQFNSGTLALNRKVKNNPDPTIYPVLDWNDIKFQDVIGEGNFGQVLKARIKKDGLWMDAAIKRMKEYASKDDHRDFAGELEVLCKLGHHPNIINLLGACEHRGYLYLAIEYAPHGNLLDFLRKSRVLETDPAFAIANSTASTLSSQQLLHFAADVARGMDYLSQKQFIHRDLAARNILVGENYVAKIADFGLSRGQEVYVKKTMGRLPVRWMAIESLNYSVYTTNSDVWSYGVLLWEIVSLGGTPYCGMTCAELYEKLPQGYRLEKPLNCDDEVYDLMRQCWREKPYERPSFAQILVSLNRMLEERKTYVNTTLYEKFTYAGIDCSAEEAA

PKCγ(h) = PKCγ(h) (Homo sapiens, UniProt P05129)
ZIPK(h) = ZIPK(h) (Homo sapiens, UniProt O43293)
CHK2(I157T)(h) = CHK2(I157T)(h) (Homo sapiens, UniProt O96017, I157T)
Sequence of CHK2(I157T)(h) (O96017 whole entry I157T): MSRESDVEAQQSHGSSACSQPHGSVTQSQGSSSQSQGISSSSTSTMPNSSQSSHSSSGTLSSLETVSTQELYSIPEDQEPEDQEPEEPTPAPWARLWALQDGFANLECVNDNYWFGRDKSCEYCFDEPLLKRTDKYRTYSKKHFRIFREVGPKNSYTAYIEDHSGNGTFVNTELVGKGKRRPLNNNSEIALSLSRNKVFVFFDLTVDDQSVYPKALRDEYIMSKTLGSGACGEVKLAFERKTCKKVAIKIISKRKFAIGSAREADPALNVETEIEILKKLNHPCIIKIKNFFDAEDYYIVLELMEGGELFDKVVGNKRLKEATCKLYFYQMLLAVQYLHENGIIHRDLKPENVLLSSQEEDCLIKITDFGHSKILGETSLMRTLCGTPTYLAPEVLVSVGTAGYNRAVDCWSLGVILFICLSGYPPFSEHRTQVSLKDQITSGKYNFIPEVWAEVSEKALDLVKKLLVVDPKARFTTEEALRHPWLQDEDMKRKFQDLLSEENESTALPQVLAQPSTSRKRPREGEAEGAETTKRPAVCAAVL

Sequence of Arg(h) (P42684 whole entry): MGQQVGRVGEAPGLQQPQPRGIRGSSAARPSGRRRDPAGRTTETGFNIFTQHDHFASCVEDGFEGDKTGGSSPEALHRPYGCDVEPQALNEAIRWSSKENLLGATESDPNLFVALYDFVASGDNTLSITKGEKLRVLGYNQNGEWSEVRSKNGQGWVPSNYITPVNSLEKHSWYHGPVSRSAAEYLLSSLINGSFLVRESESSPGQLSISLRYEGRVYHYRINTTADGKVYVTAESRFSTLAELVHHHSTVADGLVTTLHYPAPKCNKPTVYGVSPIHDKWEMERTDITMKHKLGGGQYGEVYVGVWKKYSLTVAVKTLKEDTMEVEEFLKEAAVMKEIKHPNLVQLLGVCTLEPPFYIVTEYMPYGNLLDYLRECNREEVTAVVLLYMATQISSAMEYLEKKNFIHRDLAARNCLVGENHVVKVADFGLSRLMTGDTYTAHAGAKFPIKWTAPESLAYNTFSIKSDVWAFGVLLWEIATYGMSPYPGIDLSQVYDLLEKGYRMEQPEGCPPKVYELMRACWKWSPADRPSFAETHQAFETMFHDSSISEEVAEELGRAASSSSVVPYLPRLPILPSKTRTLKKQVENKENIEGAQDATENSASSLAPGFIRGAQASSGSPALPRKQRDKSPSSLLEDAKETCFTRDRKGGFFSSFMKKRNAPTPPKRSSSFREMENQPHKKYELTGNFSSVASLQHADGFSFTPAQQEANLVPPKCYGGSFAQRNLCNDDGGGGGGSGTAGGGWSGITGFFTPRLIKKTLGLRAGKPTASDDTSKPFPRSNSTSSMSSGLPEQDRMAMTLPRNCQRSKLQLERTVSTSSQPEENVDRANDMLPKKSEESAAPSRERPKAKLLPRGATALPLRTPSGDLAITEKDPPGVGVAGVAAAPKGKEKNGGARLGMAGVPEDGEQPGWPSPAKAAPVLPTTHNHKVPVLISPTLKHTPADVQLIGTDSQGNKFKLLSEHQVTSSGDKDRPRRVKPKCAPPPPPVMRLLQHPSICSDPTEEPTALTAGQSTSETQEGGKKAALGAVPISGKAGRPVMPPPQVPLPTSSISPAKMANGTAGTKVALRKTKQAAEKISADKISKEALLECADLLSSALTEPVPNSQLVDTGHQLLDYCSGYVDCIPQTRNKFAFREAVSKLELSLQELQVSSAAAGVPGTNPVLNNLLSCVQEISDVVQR

CC(C)CCC(=O)[C@]1(O)C(O)=C(C(=O)C(C)C)C(=O)[C@H]1CCC(C)C [TH2, tetrahydroiso-cohumulone]
kinase inhibition (Arg(h); 1 μg/ml): 92% of control
kinase inhibition (Arg(h); 5 μg/ml): 92% of control
kinase inhibition (Arg(h); 25 μg/ml): 69% of control
kinase inhibition (Arg(h); 50 μg/ml): 53% of control
kinase inhibition (Arg(h); 100 μg/ml): 43% of control
kinase inhibition (EGFR(T790M, L858R)(h); 1 μg/ml): 104% of control
kinase inhibition (EGFR(T790M, L858R)(h); 5 μg/ml): 109% of control
kinase inhibition (EGFR(T790M, L858R)(h); 25 μg/ml): 95% of control
kinase inhibition (EGFR(T790M, L858R)(h); 50 μg/ml): 94% of control
kinase inhibition (EGFR(T790M, L858R)(h); 100 μg/ml): 82% of control
kinase inhibition (IKKα(h); 1 μg/ml): 99% of control
kinase inhibition (IKKα(h); 5 μg/ml): 108% of control
kinase inhibition (IKKα(h); 25 μg/ml): 114% of control
kinase inhibition (IKKα(h); 50 μg/ml): 114% of control
kinase inhibition (IKKα(h); 100 μg/ml): 120% of control
kinase inhibition (Fes(h); 1 μg/ml): 140% of control
kinase inhibition (Fes(h); 5 μg/ml): 120% of control
kinase inhibition (Fes(h); 25 μg/ml): 105% of control
kinase inhibition (Fes(h); 50 μg/ml): 99% of control
kinase inhibition (Fes(h); 100 μg/ml): 86% of control
kinase inhibition (PKCθ(h); 1 μg/ml): 101% of control
kinase inhibition (PKCθ(h); 5 μg/ml): 84% of control
kinase inhibition (PKCθ(h); 25 μg/ml): 116% of control
kinase inhibition (PKCθ(h); 50 μg/ml): 96% of control
kinase inhibition (PKCθ(h); 100 μg/ml): 83% of control
kinase inhibition (CaMKIIγ(h); 1 μg/ml): 109% of control
kinase inhibition (CaMKIIγ(h); 5 μg/ml): 109% of control
kinase inhibition (CaMKIIγ(h); 25 μg/ml): 131% of control
kinase inhibition (CaMKIIγ(h); 50 μg/ml): 108% of control
kinase inhibition (CaMKIIγ(h); 100 μg/ml): 101% of control
kinase inhibition (PDK1(h); 1 μg/ml): 122% of control
kinase inhibition (PDK1(h); 5 μg/ml): 123% of control
kinase inhibition (PDK1(h); 25 μg/ml): 102% of control
kinase inhibition (PDK1(h); 50 μg/ml): 87% of control
kinase inhibition (PDK1(h); 100 μg/ml): 69% of control
kinase inhibition (PAR-1Bα(h); 1 μg/ml): 109% of control
kinase inhibition (PAR-1Bα(h); 5 μg/ml): 113% of control
kinase inhibition (PAR-1Bα(h); 25 μg/ml): 114% of control
kinase inhibition (PAR-1Bα(h); 50 μg/ml): 116% of control
kinase inhibition (PAR-1Bα(h); 100 μg/ml): 88% of control
kinase inhibition (Tie2(R849W)(h); 1 μg/ml): 91% of control
kinase inhibition (Tie2(R849W)(h); 5 μg/ml): 53% of control
kinase inhibition (Tie2(R849W)(h); 25 μg/ml): 48% of control
kinase inhibition (Tie2(R849W)(h); 50 μg/ml): 43% of control
kinase inhibition (Tie2(R849W)(h); 100 μg/ml): 46% of control
kinase inhibition (PKCγ(h); 1 μg/ml): 102% of control
kinase inhibition (PKCγ(h); 5 μg/ml): 107% of control
kinase inhibition (PKCγ(h); 25 μg/ml): 101% of control
kinase inhibition (PKCγ(h); 50 μg/ml): 91% of control
kinase inhibition (PKCγ(h); 100 μg/ml): 99% of control
kinase inhibition (ZIPK(h); 1 μg/ml): 106% of control
kinase inhibition (ZIPK(h); 5 μg/ml): 96% of control
kinase inhibition (ZIPK(h); 25 μg/ml): 91% of control
kinase inhibition (ZIPK(h); 50 μg/ml): 81% of control
kinase inhibition (ZIPK(h); 100 μg/ml): 76% of control
kinase inhibition (CHK2(I157T)(h); 1 μg/ml): 108% of control
kinase inhibition (CHK2(I157T)(h); 5 μg/ml): 104% of control
kinase inhibition (CHK2(I157T)(h); 25 μg/ml): 94% of control
kinase inhibition (CHK2(I157T)(h); 50 μg/ml): 83% of control
kinase inhibition (CHK2(I157T)(h); 100 μg/ml): 74% of control
